Values of other authors as cited in patent publication US20230190754A1, “Therapeutic combinations for the treatment of Progressive Fibrosing interstitial lung diseases” (Boehringer Ingelheim International GmbH, priority 2021, published 2023).

Test system: PDE4 subtypes, A-D
Conditions: cited from earlier work
For `O=C(Nc1c(Cl)cncc1Cl)c1ccc(OC(F)F)c(OCC2CC2)c1` [roflumilast], the “Preferential enzymatic inhibition among the PDE4 subtypes (in words)” value is given as “None of these show any preferential enzymatic inhibition”.
For `CCOc1cc([C@@H](CS(C)(=O)=O)N2C(=O)c3cccc(NC(C)=O)c3C2=O)ccc1OC` [apremilast], the “Preferential enzymatic inhibition among the PDE4 subtypes (in words)” value is listed as “None of these show any preferential enzymatic inhibition”.
For `N#Cc1ccc(Oc2ccc3c(c2)COB3O)cc1` [crisaborole], the “Preferential enzymatic inhibition among the PDE4 subtypes (in words)” value is given as “None of these show any preferential enzymatic inhibition”.
